The target in assay [1] is T1, mitochondrial complex I (NADH: ubiquinone oxidoreductase) (Mus musculus, UniProt P03888+Q91WD5+Q9DC70). The assay is described as follows: NADH: ubiquinone oxidoreductase activity. In kind it is biochemical.
Assay [2] deals with mitochondrial complex II (succinate: ubiquinone oxidoreductase) (Mus musculus, UniProt Q8K2B3+Q9CQA3+Q9CXV1+Q9CZB0). The assay is described as follows: succinate: ubiquinone oxidoreductase activity, DCPIP reduction. The format is biochemical.
Assay [3] addresses T1, mitochondrial complex I (NADH: ubiquinone oxidoreductase). The assay is described as follows: NADH: ubiquinone oxidoreductase activity. The settings on record: read-out: % inhibition at 20 μM. In kind it is cell-based.

Chain of mitochondrial complex II (succinate: ubiquinone oxidoreductase) (Q8K2B3 43-664): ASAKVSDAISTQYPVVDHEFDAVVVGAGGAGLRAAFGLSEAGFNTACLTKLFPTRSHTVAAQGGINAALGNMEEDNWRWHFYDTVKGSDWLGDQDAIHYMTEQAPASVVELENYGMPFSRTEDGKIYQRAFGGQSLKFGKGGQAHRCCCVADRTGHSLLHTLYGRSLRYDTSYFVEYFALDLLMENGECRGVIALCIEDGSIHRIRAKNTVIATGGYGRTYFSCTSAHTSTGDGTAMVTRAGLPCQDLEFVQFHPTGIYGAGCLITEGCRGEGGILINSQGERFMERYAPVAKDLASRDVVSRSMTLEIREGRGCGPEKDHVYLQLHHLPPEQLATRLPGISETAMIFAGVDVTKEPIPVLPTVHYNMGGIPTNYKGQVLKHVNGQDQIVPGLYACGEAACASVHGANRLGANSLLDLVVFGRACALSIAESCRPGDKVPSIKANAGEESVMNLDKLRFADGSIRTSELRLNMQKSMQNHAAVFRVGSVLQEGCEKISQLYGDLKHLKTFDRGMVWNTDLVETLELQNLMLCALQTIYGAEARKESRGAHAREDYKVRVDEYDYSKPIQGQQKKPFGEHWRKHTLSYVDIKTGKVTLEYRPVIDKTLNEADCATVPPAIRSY
Chain of mitochondrial complex II (succinate: ubiquinone oxidoreductase) (Q9CQA3 31-282): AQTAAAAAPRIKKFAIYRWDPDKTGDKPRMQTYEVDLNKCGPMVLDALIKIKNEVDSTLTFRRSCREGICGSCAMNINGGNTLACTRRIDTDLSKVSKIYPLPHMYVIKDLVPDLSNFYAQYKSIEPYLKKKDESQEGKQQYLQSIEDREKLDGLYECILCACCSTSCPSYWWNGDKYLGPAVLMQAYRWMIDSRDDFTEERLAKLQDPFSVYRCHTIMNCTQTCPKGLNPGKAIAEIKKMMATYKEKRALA
Chain of mitochondrial complex II (succinate: ubiquinone oxidoreductase) (Q9CZB0 30-169): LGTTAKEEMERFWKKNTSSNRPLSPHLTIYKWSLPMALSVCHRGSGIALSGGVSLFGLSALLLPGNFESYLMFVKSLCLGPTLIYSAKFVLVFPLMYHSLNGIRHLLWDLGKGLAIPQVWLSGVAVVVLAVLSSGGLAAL
Chain of mitochondrial complex II (succinate: ubiquinone oxidoreductase) (Q9CXV1 57-159): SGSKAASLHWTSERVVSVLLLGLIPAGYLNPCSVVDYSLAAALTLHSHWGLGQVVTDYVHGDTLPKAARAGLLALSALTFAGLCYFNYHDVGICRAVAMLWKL

For the molecule `O=C1Nc2ccc(Cl)cc2[C@@](C#CC2CC2)(C(F)(F)F)O1` [EFV, efavirenz], the IC50 in assay [1] was approximately 30 µM.

`NN` [HzN, hydrazine] registered an IC50 in assay [2] of approximately 30 µM.

For `C=C(C)[C@H]1Cc2c(ccc3c2O[C@@H]2COc4cc(OC)c(OC)cc4[C@@H]2C3=O)O1` [ROT, rotenone], the inhibition at 20 µM in assay [3] is approximately 50%.

(Values after PMC4297936 (Redox Biology, 2014).)
